Reference: publication PMC7084495, “Discovery of 1-Pyrimidinyl-2-Aryl-4,6-Dihydropyrrolo [3,4-d]Imidazole-5(1H)-Carboxamide as a Novel JNK Inhibitor” (International Journal of Molecular Sciences, 2020)

target: T1, JNK3 (h) (Homo sapiens, UniProt P53779); experiment: JNK3 kinase inhibition, Reaction Biology Kinase HotSpot radiometric assay; type: biochemical; conditions: enzymatic activity; ATP 10 μM
T1 construct: purchased Reaction Biology Corp. (Kinase HotSpot service)
Excerpt: (specific activity approx. 500 cpm/pmol, concentration as required).

T1 sequence (P53779 whole entry): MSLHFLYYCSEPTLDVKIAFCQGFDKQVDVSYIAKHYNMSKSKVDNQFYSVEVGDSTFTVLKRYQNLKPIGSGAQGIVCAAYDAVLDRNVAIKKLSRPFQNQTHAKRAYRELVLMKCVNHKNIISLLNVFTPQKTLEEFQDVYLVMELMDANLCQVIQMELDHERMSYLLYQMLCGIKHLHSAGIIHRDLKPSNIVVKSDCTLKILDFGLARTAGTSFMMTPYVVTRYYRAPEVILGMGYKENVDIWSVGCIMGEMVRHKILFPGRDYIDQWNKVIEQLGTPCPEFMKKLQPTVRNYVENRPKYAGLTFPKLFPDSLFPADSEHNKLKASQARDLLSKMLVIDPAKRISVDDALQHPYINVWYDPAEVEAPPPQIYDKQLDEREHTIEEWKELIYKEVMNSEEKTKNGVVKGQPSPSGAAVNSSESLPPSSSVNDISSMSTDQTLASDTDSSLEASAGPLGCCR

Row | SMILES | IC50
1 | NC(=O)N1Cc2nc(-c3ccc4c(c3)OCO4)n(-c3ccnc(N[C@H]4CCCN(C(=O)C5CCC5)C4)n3)c2C1 [Compound 20c, (S)-2-(Benzo[d][1,3]Dioxol-5-yl)-1-(2-((1-(Cyclobutanecarbonyl)Piperidin-3-yl)Amino)Pyrimidin-4-yl)-4,6-Dihydropyrrolo[3,4-d]Imidazole-5(1H)-Carboxamide] | 225 nM
2 | NC(=O)N1Cc2nc(-c3ccc(Cl)c(Cl)c3)n(-c3ccnc(N[C@H]4CCCN(C(=O)C5CC5)C4)n3)c2C1 [Compound 17a, (S)-1-(2-((1-(Cyclopropanecarbonyl)Piperidin-3-yl)Amino)Pyrimidin-4-yl)-2-(3,4-Dichlorophenyl)-4,6-Dihydropyrrolo[3,4-d]Imidazole-5(1H)-Carboxamide] | 10.4 nM
3 | O=C(C1CC1)N1CCC[C@H](Nc2nccc(-n3c(-c4ccc(Cl)c(Cl)c4)nc4c3CN(C(=O)N3CCC(O)CC3)C4)n2)C1 [Compound 22a, (S)-(1-(2-((1-(Cyclopropanecarbonyl)piperidin-3-yl)amino)pyrimidin-4-yl)-2-(3,4-dichlorophenyl)-4,6-dihydropyrrolo[3,4-d]Imidazol-5(1H)-yl)(4-hydroxypiperidin-1-yl)methanone] | 18.6 nM
